Results published in US20240043483A1, “TAU BIOSENSOR CELL LINES” (THE BOARD OF REGENTS OF THE UNIVERSITY OF TEXAS SYSTEM, priority 2020, published 2024).

Columns and labels:
Format in all cases: cell-based, human
[1] = system: P301S v2L HEK biosensor cells; assay: Seeding assay, percent FRET positivity by flow cytometry, v2L biosensor cells
From the text: A lentiviral FM5-YFP plasmid containing the tau segment 246 to 378 with the P301S mutation, was used as a template, where the human ubiquitin C (Ubc) promoter was replaced with a human cytomegalovirus (CMV) promoter, and the YFP sequence was replaced with a mCerulean 3 or mClover3 coding sequences (see FIGS. 1 and 2). The sequence linking the tau segment and the coding sequence of the fluorophore (Cer or Co) was optimized to the following sequence: GSAGSAAGSGEF (SEQ ID NO:41). Low passage HEK293T cells (P5) were thawed and passaged with antibiotic free media twice before being co-administration of lentivirus encoding tau RD(P301S)-Clo/Cer tau lentivirus. After four passages, single cells were cell sorted by FACS based on low or high signal for both mCerulean3 and mClover3, termed version 2 low (v2L) or version 2 high (v2H). Monoclonal colonies were expanded and characterized as described.
Wild-type full-length (2N4R) tau was synthesized and purified. […]
(§1) P301S4 or P301S v2L or v2H HEK biosensor cells were plated in 96-well plates at 20,000 cells per well 24 hours before treatment. dilutions of recombinant tau fibrils or brain homogenates in Opti-MEM (Thermo Fisher), 30 μl total volume, or immunoprecipitation eluents 120 μl total volume, were allowed to come to room temperature. […] After 48 hours, cells were trypsinized and fixed in 2% PFA and suspended in flow cytometry buffer (1×HBSS, 1% FBS, 1 mM EDTA). percent FRET positivity was determined of each well by flow cytometry.
(§2) The sensitivity of v2L and v2H cells was first compared to the original line. synthetic fibrils based on exposure of recombinant tau protein to heparin were created. The fibrils were incubated with cells in the absence or presence of Lipofectamine 2000 for 48 h and quantified the percentage of FRET-positive cells using flow cytometry to determine the lower limit of detection. […] In the absence of cationic lipid reagent, 1.6 pM tau were detected in v2L cells and 0.78 pM tau in v2H cells (FIGS. 5A and 5B). […]

[2] = system: P301S v2H HEK biosensor cells; assay: Seeding assay, percent FRET positivity by flow cytometry, v2H biosensor cells; details: for lower limit of detection (LLD), lowest quantity producing FRET positivity statistically distinguishable from background: v2H, T-test p<0.05
P301S v1 biosensor cells = assay: Seeding assay, percent FRET positivity by flow cytometry, v1 (original) biosensor cells; details: T-test p<0.05
Experimental: Wild-type full-length (2N4R) tau was synthesized and purified. 8 μM purified recombinant tau was incubated with 8 uM heparin and 10 mM DTT at 37 C for 48 h in 10 mM HEPES, 100 mM NaCL, PH 7.4. The quality of fibrils was verified by transmission electron microscopy.
as §1, §2

HEK biosensor cells = assay: Immunoprecipitation from spiked control CSF followed by seeding assay; details: 1 ml control CSF spiked
Experimental: 50 μl of Dynabeads Protein A (Thermo Fisher) were washed per the manufacturer protocol and incubated with 10 μg of polyclonal antibody (TauA, Diamond Lab) against the first microtubule-binding repeat of tau for 1 hour at room temperature. washed beads were then added to 1 or 5 ml of human CSF and incubated with rotation overnight at 4° C. Captured proteins were eluted in low pH elution buffer (Pierce) and neutralized the buffer with 1:10 1M Tris pH 8.5 with a final volume of 120 μl.
as §1
To determine the lower limit of detection of tau seeds in CSF, control CSF were spiked with small quantities of AD frontal cortex protein (brain AD1) or recombinant tau fibrils. the AD seeds were concentrated and purified using a rabbit polyclonal antibody directed against tau RD (TauA).

**Q.** With “recombinant tau fibrils: Wild-type full-length (2N4R) recombinant tau incubated with heparin and DTT at 37 C for 48 h to form fibrils” as the substance, how does the “tau detected (lower limit of detection)” value ([1]; v2L cells, absence of cationic lipid reagent, FIGS. 5A and 5B) read?
**A.** 1.6 pM

**Q.** And the “lower limit of detection (detected, monomer equivalent)” value ([1]; v2L cells, presence of Lipofectamine 2000, 48 h, FIGS. 4A and 4B)?
**A.** 10 fM

**Q.** What about the “sensitivity versus the original line” value ([1]; v2L lines versus original biosensor line) of the same substance?
**A.** approximately 10 fold

**Q.** What about the “tau detected (lower limit of detection)” value ([2]; v2H cells, absence of cationic lipid reagent, FIGS. 5A and 5B) of the same substance?
**A.** 0.78 pM

**Q.** What about the “lower limit of detection (detected, monomer equivalent)” value ([2]; v2H cells, presence of Lipofectamine 2000, 48 h, FIGS. 4A and 4B) of the same substance?
**A.** 32 aM

**Q.** And the “sensitivity versus the original biosensor cell line” value ([2]; v2H line versus original biosensor line)?
**A.** more than 300 fold

**Q.** What about the “lower limit of detection (LLD), lowest quantity producing FRET positivity statistically distinguishable from background” value (from here on “lower limit of detection (LLD)”) ([2]; Lipofectamine seeding) of the same substance?
**A.** 32 amol per sample

**Q.** And the “lower limit of detection (LLD)” value ([2]; naked seeding)?
**A.** 0.78 pmol

**Q.** What about the “lower limit of detection (LLD)” value (P301S v1 biosensor cells; v1, Lipofectamine seeding) of the same substance?
**A.** 10 fmol per sample

**Q.** What about the “lower limit of detection (LLD)” value (P301S v1 biosensor cells; v1, naked seeding) of the same substance?
**A.** 1.6 pmol

**Q.** What about the “seeding activity detected in spiked CSF after IP, lowest level (monomer equivalent)” value (HEK biosensor cells; IP with TauA antibody, FIG. 7C) of the same substance?
**A.** 100 attomolar

**Q.** What about the “seeding detected from spiked samples down to (tau monomer equivalent)” value (HEK biosensor cells; IP, FIG. 7) of the same substance?
**A.** 100 attomoles
